Measured values taken from PubChem BioAssay (NCI).
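Grown in 96-well plates, cells were treated for 48 hours with each compound at five concentrations. Insufficient inhibition: endpoint recorded as highest concentration tested. GI50 marks 50% less growth. Definition used: TGI = concentration required for complete inhibition of growth.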 Activity calls are given as the source filed them. Rule as the data show it: active = GI50 below about 0.43 µM; inactive = the rest.

Legend:
Experiment in all cases: growth of human tumour cells (NCI), 48 h
HCT-116 colon = test system: HCT-116 colon
SF-539 CNS = test system: SF-539 CNS
NCI-H460 lung = test system: NCI-H460 lung
UACC-257 melanoma = test system: UACC-257 melanoma
A549 NSCLC = test system: A549 NSCLC
UACC-62 melanoma = test system: UACC-62 melanoma
T-47D breast = test system: T-47D breast
PC-3 prostate = test system: PC-3 prostate

Structure (SMILES)	TGI (HCT-116 colon) [µM]	TGI (SF-539 CNS) [µM]	TGI (NCI-H460 lung) [µM]	TGI (UACC-257 melanoma) [µM]	TGI (A549 NSCLC) [µM]	TGI (UACC-62 melanoma) [µM]	GI50 (HCT-116 colon) [µM]	GI50 (T-47D breast) [µM]	TGI (T-47D breast) [µM]	GI50 (SF-539 CNS) [µM]	GI50 (NCI-H460 lung) [µM]	GI50 (UACC-257 melanoma) [µM]	GI50 (PC-3 prostate) [µM]	TGI (PC-3 prostate) [µM]	GI50 (A549 NSCLC) [µM]	GI50 (UACC-62 melanoma) [µM]	outcome (HCT-116 colon)	outcome (NCI-H460 lung)	outcome (A549 NSCLC)
CC(C)(C)c1cc(CCC(=O)Nc2ccc(Cl)cc2)nc(NC#N)n1	> 100	> 100	> 100	> 100	> 100	> 100													
Cc1ccc(NC(=O)CC(=O)n2nc(C)c(N=Nc3ccccc3C(=O)O)c2C)cc1	> 100	> 100	> 100	> 100	> 100	> 100													
CCCC1N2CCCCC2[C@@H]2c3[nH]c4ccccc4c3CCN12 (some centres not stated)	> 100	> 100	> 100	> 100	> 100	> 100													
N#C/C(=C\c1ccc2ccccc2c1)c1ccccc1	> 100	36.8	34	> 100		36.7													
O=C(N/C(=C\c1cccc([N+](=O)[O-])c1)c1nc2ccc([N+](=O)[O-])cc2[nH]1)c1ccccc1		> 100			> 100	46.7													
NC12CC3CC(C1)CC(C(=O)O)(C3)C2	> 100	> 100	> 100	> 100	> 100	> 100													
Cc1ccc2c(c1)Sc1c(ccc3ccccc13)N2	> 100	> 100	> 100	> 100	> 100	> 100	8.37	38.3	> 100	20.7	5.37	> 100	11.5	> 100	92.8	73.8			
N#CC(C#N)=C1Nc2ccccc2S1	> 100	93.7	> 100	68.7	> 100	> 100	37.7	35.8	> 100	36.3	32	21.4	40.1	> 100	23.5	37.2			
CS(=O)(=O)c1ccc(-n2nc(C(F)(F)F)cc2OC2CCCC2)cc1	> 100	> 100	> 100	> 100	79.4	> 100	34.5	33	> 100	39.8	27.8	40.1	27.7	> 100	25.7	33.3			
Cc1ccc(C(=O)NC(C)C)cc1-c1ccc(C(=O)NCC2CC2)cc1	> 25	> 25	> 25	> 25	> 25	> 25	> 25	16.5	> 25	> 25	> 25	> 25	> 25	> 25	> 25	> 25			
COCCCNC(=O)C1C(=O)C(=O)N(CCCOC)C1=O (configuration not stated)	> 100	> 100		> 100	> 100	> 100													
CN(C)CCNC(=O)c1cccc2ccc(-c3ccncc3)nc12	4.71	9.64		6.66		3.73													
CC/C=C\C[C@H](F)C/C=C1/C(=O)C=C[C@@H]1C/C=C\CCCC(=O)O	4.78	17	30.9	11.4	18.8	11.1	1.34	6.37	23.2	7.21	9.35	5.23	6.09	15.7	7.3	4.29			
CCCCCCCC(=O)OCC/C=C/C1OC1C1OC(=O)/C=C\C=C\c2nc(oc2C)/C=C(/C)CCC2OC2C1OC(=O)NC(C)=O (configuration not stated)	0.368	0.0819	0.495	0.125	2.64	0.0808	0.00922	0.042	0.161	0.0396	0.0192	0.0301	0.0272	1.84	0.026	0.0316			
CC(=O)OCC1OC(NC(=S)N/N=C2\CC(c3ccccc3)Oc3ccccc32)C(OC(C)=O)C(OC(C)=O)C1OC(C)=O (configuration not stated)	> 100	> 100	> 100	> 100	> 100	> 100													
CCOC(=O)/C(=C\c1ccccc1)C(=O)O	> 100	> 100	> 100	> 100	> 100	> 100													
O=C(O)CCSC(=O)Nc1ccc([N+](=O)[O-])cc1	> 100	> 100	> 100	> 100	> 100														
COc1ccc(NC(=O)CC(=O)N/N=C/c2ccc(N(CCC#N)S(C)(=O)=O)cc2)cc1	> 100	> 100	> 100		> 100	> 100													
COc1cc(Nc2nc3ccccc3nc2-c2cccs2)cc(OC)c1OC	> 100	> 100	> 100	> 100	> 100	> 100													
O=[N+]([O-])c1ccc(C=NC2CCCCC2)cc1	> 100	> 100	> 100	> 100	> 100	> 100													
COc1cc(C(=O)CBr)c(OC)cc1C	> 100	> 100		> 100	> 100	> 100			> 100					> 100					
NC(=O)COC(=O)c1c(Cl)nc2sccn12	> 31.6	> 100	> 100	> 100	> 100	> 100													
O=C(Nc1ccc(-c2nc(N3CCOCC3)c3cccn3n2)cc1)Nc1cccnc1	27.7	0.296	> 100	40.8	> 100		0.041			0.0396	0.142	0.428	0.0512	2.27	0.244				
CCN(CC)C(c1ccc(N(C)C)cc1)C(c1ccc(N(C)C)cc1)N(CC)CC (configuration not stated)	> 73	> 73	> 73	> 73	> 73	> 73													

Structure (SMILES)	TGI (HCT-116 colon) [µM]	TGI (SF-539 CNS) [µM]	TGI (NCI-H460 lung) [µM]	TGI (UACC-257 melanoma) [µM]	TGI (A549 NSCLC) [µM]	TGI (UACC-62 melanoma) [µM]	GI50 (HCT-116 colon) [µM]	GI50 (T-47D breast) [µM]	TGI (T-47D breast) [µM]	GI50 (SF-539 CNS) [µM]	GI50 (NCI-H460 lung) [µM]	GI50 (UACC-257 melanoma) [µM]	GI50 (PC-3 prostate) [µM]	TGI (PC-3 prostate) [µM]	GI50 (A549 NSCLC) [µM]	GI50 (UACC-62 melanoma) [µM]	outcome (HCT-116 colon)	outcome (NCI-H460 lung)	outcome (A549 NSCLC)
O=C(CC1C(=O)NN(c2ccc(Br)cc2)C1=O)c1cc(O)ccc1O (configuration not stated)	> 50	27.3	> 50	> 50	> 50	27.7	26.2			11.3	23	19.6	24.1	> 50	> 50	12			
COc1ccc2c(c1)C(=O)c1c-2n(CCCn2ccnc2)c(=O)c2cc([N+](=O)[O-])ccc12		0.0101	0.241			0.075		< 0.01		< 0.01	< 0.01	0.115	0.0168	> 100	< 0.01	< 0.01			
COc1ccc2c(c1)[n+](=O)c(C(=O)C/C(=N/OCCCc1ccccc1)C(=O)NC13CC4CC(CC(C4)C1)C3)c(C)n2[O-]	> 100	> 100	> 100	> 100	> 100	> 100													
CNC(=O)C1CCc2nnc(-c3ccccc3)n21 (configuration not stated)	> 100	> 100	> 100	> 100	> 100	> 100													
COc1ccc2nc3c(C(=O)NCCN(C)C)cccc3nc2c1	28.1	10.9	> 1	19.9	> 100	21.2													
C/C(CC(=O)Nc1cc(C)ccc1C)=N\NC(=O)c1ccncc1	> 100	> 100	> 100	> 100	> 100	> 100													
C#CCNC(=O)c1cccc2c1cc(C)n2-c1nc2c(c(NCc3ccccc3)n1)CCCC2	0.0378	0.07	0.0723		0.124	0.0359	0.0109	0.0283	0.117	0.0245	0.0233		0.024	0.0717	0.0381	0.0158			
Nc1c(-c2ccc(Cl)cc2)[n+]([O-])c2ccccc2[n+]1[O-]		> 100	> 100	> 100	> 100	> 100													
O=C(CC1(O)C(=O)Nc2c(Cl)ccc(Cl)c21)c1ccc(F)cc1 (configuration not stated)			> 100	> 100	> 100														
CC(SC(=S)N1CCOCC1)c1cc2oc(=O)n(C)c2cc1Cl (configuration not stated)	> 100	> 100	> 100	> 100	> 100	> 100													
O=c1cc(-c2ccccc2)oc2cc(OC/C(=N/O)c3ccccc3)ccc12		23.6	> 50	> 50	> 50	> 50		> 50	> 50	10.8	14.2	> 50	9.4	38.4	31.7	12.7			
Cc1cc(N(CCC#N)CCC#N)ccc1/C=C1\N=C(c2cc([N+](=O)[O-])ccc2Cl)N(c2cccc(Cl)c2)C1=O	> 100	> 100	> 100	> 100	> 100	> 100													
Cc1ccc(C(=O)N(CCCN)C(c2oc3cc(Cl)ccc3c(=O)c2Cc2ccccc2)C(C)C)cc1 (configuration not stated)			1.15	1.97	1.54	2.3		< 0.01	2.02	< 0.01	< 0.01	< 0.01	< 0.01	2.03	< 0.01	< 0.01			
O/N=C/c1ncccc1C1OCCO1	> 100	> 100	> 100	> 100	> 100	> 100													
C[C@@H]1OC(=O)N2CCCC(=C3SCCCS3)C12 (some centres not stated)	> 100	> 100	> 100	> 100	> 100	> 100													
Cn1c2ccccc2c2ccc3c(c21)C(=O)c1ccccc1C3=O	40.6	41.2		67.5	> 100	38.3			49.8					33.2					
Cc1cc(-c2cnn3c(NCC4CC(C)(O)C4)cc(Oc4cccnc4)nc23)ccc1C(=O)NC1CC1 (configuration not stated)	> 100	> 100	> 100	> 100	> 100	> 100	0.0858			2.01	0.585	> 100			3.49	2.67			
CCCCCCCCn1ccc2cc(NC(=O)Cn3cc(CN4CCCC4)nn3)ccc21	3.32	3.19	3.51	3.57	3.63	3.16	1.7	1.73	3.76	1.73	1.82	1.86			1.83	1.7			
C/C(O)=C(\N=O)C(=O)Nc1ccc(Cl)cc1Cl	> 100	> 100	> 100	> 100	> 100	> 100													
Cc1c(C(=O)C/C(=N/NC(=O)C[N+](C)(C)C)C(=O)Nc2ccc(Cl)cc2)[n+](=O)c2ccccc2n1O	> 100	> 100	> 100	> 100	> 100	> 100													
O=C(CC1(O)C(=O)Nc2ccccc21)c1ccncc1 (configuration not stated)	> 100	> 100	> 100		> 100	> 100													
CCOC(=O)/C(C#N)=C/c1[nH]c(C(=O)OCc2ccccc2)c(C)c1C		> 100	> 100	> 100	> 100	> 100													
COC1(OC)CC2OC1C1N=NN(C(=O)OC(C)(C)C)C21 (configuration not stated)		> 100	> 100	> 100	> 100	> 100													
COc1ccc(C(=O)C#Cc2cnc(OC)nc2OC)cc1	2.75		10.8	5.63	15.7	2.8			61400			40800	27800	2.58		31900	inactive	inactive	inactive
